From patent publication US20030125311A1, “Compounds capable of binding with the cytoskeleton” (priority 2002, published 2003)
Structures can show the parent of a compound that is named as a salt.

Key:
[1] = test system: MT (Beef); assay: Index of competition with pregnenolone, MT (beef); format: binding; conditions: Pregnenolone = 100%
Procedure: (§1) In trials of competition between pregnenolone and different steroids for the binding studied, 0.2 ml of cytosol is incubated with 100 nM of PREG [^3H] and a 1-, 10-, 100-, and 1,000-fold excess of non-radioactive steroid.

[2] = test system: Cytosol (Rat); assay: Index of competition with pregnenolone, cytosol (rat); format: binding; conditions: Pregnenolone = 100%
Procedure: as §1

[3] = test system: Cytosol (piglet); assay: Index of competition with pregnenolone, cytosol (piglet); format: binding; conditions: Pregnenolone = 100%; cell marked piglet
Procedure: as §1

[4] = test system: rat brain cytosol binding sites of pregnenolone; assay: Competition trials for PREG [3H] binding in brain cytosol; design: key to R.C.R. 50 (relative competition index): IC50(PREG)/IC50(competitor) ×100; PREG = 100; conditions: for R.C.R. 50 (relative competition index): PREG = 100, 50% reduction of specific binding of 100 nM PREG [3H], mean±standard error, n=3
Procedure: as §1
To study the specificity of the binding of PREG [^3H], different steroids were used.
(§2) The relative competition index was determined as ratios of the concentrations of the competitor (in the […]) versus PREG causing a reduction of 50% of the specific binding of PREG [^3H]×100 (mean±standard error, n=3).

[5] = biological target: MAP2-tubulin copolymers (Bos taurus, UniProt A0A3Q1NAK9); assay: Competition for PREG [3H] binding to MAP2-tubulin copolymers (RCR); design: species or system calf; conditions: for RCR: MAP2-tubulin copolymers, PREG = 100
Chain of MAP2-tubulin copolymers (A0A3Q1NAK9 1-1867): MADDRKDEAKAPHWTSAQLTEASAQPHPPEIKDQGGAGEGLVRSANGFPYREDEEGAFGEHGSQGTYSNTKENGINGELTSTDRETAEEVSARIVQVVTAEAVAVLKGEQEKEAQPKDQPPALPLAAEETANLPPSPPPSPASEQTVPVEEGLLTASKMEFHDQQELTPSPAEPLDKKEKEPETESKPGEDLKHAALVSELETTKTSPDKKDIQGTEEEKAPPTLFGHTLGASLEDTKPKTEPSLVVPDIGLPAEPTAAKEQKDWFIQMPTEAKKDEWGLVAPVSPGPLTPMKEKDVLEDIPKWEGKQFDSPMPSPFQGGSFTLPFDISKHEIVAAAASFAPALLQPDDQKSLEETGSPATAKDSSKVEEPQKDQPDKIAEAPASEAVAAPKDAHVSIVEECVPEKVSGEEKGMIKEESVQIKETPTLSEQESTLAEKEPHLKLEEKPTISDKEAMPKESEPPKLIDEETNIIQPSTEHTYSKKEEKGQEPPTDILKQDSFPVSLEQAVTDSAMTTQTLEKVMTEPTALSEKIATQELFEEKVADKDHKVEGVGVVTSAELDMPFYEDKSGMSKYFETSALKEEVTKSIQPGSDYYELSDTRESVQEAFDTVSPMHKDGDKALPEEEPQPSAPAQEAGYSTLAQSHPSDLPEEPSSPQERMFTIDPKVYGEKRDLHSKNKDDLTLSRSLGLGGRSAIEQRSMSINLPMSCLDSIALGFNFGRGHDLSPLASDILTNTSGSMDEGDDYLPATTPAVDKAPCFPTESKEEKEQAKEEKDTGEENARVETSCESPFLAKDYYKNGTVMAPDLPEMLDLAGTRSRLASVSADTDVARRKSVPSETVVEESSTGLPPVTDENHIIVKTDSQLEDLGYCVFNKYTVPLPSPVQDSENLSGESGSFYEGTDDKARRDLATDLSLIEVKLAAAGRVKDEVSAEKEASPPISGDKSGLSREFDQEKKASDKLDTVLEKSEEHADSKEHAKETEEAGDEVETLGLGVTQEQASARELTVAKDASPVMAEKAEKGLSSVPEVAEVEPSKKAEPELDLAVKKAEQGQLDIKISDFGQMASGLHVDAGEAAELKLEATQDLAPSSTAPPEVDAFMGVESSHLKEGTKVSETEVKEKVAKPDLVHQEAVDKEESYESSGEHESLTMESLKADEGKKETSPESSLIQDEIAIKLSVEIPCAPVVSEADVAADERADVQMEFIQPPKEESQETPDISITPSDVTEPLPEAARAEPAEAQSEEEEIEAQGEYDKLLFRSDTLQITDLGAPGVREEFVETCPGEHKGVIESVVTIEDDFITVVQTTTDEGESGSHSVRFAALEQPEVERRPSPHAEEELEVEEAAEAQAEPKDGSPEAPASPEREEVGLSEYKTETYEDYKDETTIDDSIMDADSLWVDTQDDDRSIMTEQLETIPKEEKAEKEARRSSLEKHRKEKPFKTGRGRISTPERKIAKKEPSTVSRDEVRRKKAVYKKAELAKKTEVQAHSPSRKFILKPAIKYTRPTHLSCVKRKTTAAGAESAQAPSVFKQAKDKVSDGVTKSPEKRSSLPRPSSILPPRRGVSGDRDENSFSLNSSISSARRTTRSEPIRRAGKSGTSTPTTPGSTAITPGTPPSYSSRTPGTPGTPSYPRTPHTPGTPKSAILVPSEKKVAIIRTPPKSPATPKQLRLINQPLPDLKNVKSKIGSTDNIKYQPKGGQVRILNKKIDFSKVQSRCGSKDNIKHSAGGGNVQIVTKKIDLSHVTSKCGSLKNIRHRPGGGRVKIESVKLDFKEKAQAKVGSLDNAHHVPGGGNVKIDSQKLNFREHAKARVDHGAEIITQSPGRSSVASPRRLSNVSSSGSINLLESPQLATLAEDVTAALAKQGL
Procedure: as §1, §2
Purified calf brain tubulin (90 μg/ml), MAP2 (45 μg/ml) or tau protein (25 μg/ml) is incubated with 100 nM of PREG [^3H], with or without a 1,000-fold excess of non-radioactive PREG.

[6] = biological target: T1, microtubules reconstituted with purified tubulin and MAP2 (Bos taurus, UniProt A0A3Q1NAK9); assay: Kinetics of assembling of microtubules (turbidity at 345 nm); format: biochemical, calf; conditions: for effect on assembling of microtubules (absorbance at 345 nm): 500 nM steroid, 37° C., 15 min
T1 construct: from tissue; host or cells: calf brain
T1 sequence (A0A3Q1NAK9 1-1867): as above
Procedure: This assembling is measured by monitoring the increases of turbidity with a UVICON® spectrophotometer (Kontron Instruments, Montigny-le-Bretonneux, France)
The microtubules are reconstituted in vitro with purified tubulin (1 mg/ml) and MAP2 (0.05 mg/ml) in buffer A.
The increase of absorbance is measured at 345 nm, at 37° C. and recorded every 30 sec. for 15 min.
The assembling of microtubules is measured either in the absence of steroids (-⋄-); or in the presence of 500 nM of steroid: PREG (- -), progesterone (-X-), estradiol (-V-); or in the presence, at the same time, of PREG and progesterone (-∘-) or of PREG and estradiol (-Δ-) each at a concentration of 500 nM.

[7] = biological target: T2, MAP-2c + Tubuline (Homo sapiens, UniProt P11137); assay: Index of competition with pregnenolone, MAP-2c + tubulin; format: binding; conditions: Pregnenolone = 100%
T2 sequence (P11137 1-471 isoform P11137-2): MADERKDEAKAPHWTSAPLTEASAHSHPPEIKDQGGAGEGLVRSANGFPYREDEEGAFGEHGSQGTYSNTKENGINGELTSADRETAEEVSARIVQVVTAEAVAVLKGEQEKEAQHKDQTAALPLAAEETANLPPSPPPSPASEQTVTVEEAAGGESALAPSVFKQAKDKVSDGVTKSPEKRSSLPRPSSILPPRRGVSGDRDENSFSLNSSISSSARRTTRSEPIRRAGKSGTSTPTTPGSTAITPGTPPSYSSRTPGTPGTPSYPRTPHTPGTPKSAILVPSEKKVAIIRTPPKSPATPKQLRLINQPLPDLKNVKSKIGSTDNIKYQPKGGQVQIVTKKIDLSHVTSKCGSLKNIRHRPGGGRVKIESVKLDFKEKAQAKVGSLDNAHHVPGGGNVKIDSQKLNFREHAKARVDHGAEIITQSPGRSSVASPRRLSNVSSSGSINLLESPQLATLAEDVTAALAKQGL
Procedure: as §1

[8] = biological target: fetal microtubules (Rattus norvegicus, UniProt P15146); assay: Competition for PREG [3H] binding to fetal microtubules (RCR); conditions: PREG = 100
Chain of fetal microtubules (P15146 whole entry): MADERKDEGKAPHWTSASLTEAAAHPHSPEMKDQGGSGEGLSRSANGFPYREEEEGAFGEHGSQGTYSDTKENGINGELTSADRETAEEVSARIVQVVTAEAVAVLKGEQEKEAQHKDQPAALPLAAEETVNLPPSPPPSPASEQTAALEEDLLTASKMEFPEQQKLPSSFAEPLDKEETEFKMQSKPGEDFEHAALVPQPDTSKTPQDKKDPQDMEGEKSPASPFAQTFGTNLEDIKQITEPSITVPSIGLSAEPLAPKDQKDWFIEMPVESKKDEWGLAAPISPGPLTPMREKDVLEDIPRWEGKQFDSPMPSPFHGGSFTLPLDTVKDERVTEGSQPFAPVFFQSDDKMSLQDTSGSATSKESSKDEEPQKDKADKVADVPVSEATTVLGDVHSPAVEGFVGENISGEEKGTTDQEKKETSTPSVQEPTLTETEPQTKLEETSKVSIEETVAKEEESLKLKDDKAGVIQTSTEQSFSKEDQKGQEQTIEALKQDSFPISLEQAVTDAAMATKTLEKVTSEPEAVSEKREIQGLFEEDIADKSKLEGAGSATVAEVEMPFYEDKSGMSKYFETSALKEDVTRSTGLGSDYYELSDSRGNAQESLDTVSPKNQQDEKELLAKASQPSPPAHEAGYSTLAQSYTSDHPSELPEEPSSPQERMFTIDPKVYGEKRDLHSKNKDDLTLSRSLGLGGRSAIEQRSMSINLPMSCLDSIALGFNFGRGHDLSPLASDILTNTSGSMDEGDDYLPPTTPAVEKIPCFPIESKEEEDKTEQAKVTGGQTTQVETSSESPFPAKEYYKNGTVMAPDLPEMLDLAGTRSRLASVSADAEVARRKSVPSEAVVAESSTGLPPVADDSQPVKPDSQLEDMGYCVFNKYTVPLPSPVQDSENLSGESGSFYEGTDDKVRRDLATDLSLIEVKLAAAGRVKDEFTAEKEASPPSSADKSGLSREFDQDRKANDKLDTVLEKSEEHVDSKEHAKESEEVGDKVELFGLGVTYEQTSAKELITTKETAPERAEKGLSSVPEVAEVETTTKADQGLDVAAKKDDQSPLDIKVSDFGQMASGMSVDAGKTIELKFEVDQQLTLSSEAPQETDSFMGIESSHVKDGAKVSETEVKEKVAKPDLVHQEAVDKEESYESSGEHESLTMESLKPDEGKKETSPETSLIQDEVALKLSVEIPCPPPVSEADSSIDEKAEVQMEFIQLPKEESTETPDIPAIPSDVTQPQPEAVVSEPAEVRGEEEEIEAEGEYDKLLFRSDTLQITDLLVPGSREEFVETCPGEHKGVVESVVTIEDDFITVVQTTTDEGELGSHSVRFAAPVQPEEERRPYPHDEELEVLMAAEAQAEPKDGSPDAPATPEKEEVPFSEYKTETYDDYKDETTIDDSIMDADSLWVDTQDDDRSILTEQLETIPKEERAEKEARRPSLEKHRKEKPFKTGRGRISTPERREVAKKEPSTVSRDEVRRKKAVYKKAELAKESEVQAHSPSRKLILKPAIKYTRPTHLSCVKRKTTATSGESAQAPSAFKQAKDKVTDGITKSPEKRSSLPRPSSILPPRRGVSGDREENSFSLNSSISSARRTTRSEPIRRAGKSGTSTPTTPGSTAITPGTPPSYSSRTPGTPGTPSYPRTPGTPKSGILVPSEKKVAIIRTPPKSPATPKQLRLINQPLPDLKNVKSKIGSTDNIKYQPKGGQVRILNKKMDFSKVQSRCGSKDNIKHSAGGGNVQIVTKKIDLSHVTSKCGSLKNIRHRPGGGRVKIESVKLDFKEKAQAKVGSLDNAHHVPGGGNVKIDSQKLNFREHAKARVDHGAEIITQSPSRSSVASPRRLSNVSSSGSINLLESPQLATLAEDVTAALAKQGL
Procedure: as §1
The microtubules are prepared starting from calf brain or adult or fetal rat brain according to an assembly/disassembly method, as a function of the temperature, in vitro (12).
as §2
The binding of PREG [^3H] to microtubules prepared by polymerization/depolymerization cycles was determined.

[9] = test system: binding sites of PREG [3H] in brain cytosol; assay: Effects of hydrolytic enzymes on the binding of PREG [3H] in cytosol; design: species or system rat
Procedure: Proteinase K (Merck, Darmstadt, Germany) and Pronase® are dissolved at 1 mg/ml in TNM buffer containing 10 mM of Tris, 0.1M of NaCl, 3 mM of MgCl2 (pH 7.4). Deoxyribonuclease I and ribonuclease A are products of Sigma-Aldrich and are respectively adjusted to 100 IU/ml and 5 IU/ml. Phospholipase A2 (Roche Molecular Biochemicals) is diluted to 20 IU/ml in TNM.
1 ml of brain cytosol is incubated with 0.2 ml of an enzyme solution at 37° C. for 30 min. The binding activity is studied of samples (0.2 ml) which had undergone the enzyme treatment or control samples diluted with buffer only.
To study the effects of hydrolytic enzymes on the binding of PREG [^3H], samples of 1 ml of cytosol incubated with 0.2 ml of an enzyme solution at 37° C. for 30 min were used. The results obtained, expressed as % of the control incubation (cytosol diluted in a buffer) are reported in Table 1 (mean±standard error, n=3).

## CC(=O)C1CC=C2C3CC=C4CC(O)CCC4(C)C3CCC21C (stereo not drawn) [3β-OH-5, 14 Preqnadiene-20-one]
[1]
  Index of Competition, MT (Beef): 95%
[2]
  Index of Competition, Cytosol (Rat): 102%

## CC(=O)OCC(=O)[C@H]1CC[C@H]2[C@@H]3CC=C4C[C@@H](O)CC[C@]4(C)[C@H]3CC[C@]12C [3β-OH-Pregna-5-ene-20-one-21-acetoxy]
[3]
  Index of Competition, Cytosol (piglet): 80 (piglet) %
[1]
  Index of Competition, MT (Beef): 107%

## CC(=O)[C@H]1CC[C@H]2[C@@H]3CC[C@H]4C[C@@H](O)CC[C@]4(C)[C@H]3CC[C@]12C [3β-hydroxy-5α-pregnane 20-one, 3β-hydroxy-5α-pregnane-20-one]
[4]
  competition for the binding of PREG [3H] (in words): effective competitor
  times less active than PREG as competitor: 5 times
  R.C.R. 50 (relative competition index): 18.4 ± 4.0

## C[C@H](O)C1CCC2C3CCC4CC(O)CCC4(C)C3CCC21C (stereo partly drawn) [5a-Pregnama 3β, 20a-diol]
[1]
  Index of Competition, MT (Beef): 96%
[2]
  Index of Competition, Cytosol (Rat): 100%

## CC(=O)[C@@]1(O)CC[C@H]2[C@@H]3CC=C4C[C@@H](O)CC[C@]4(C)[C@H]3CC[C@@]21C [17α-hydroxy-pregnenolone]
[4]
  R.C.R. 50 (relative competition index): 0.85

## CC(=O)[C@@]1(O)CC[C@H]2[C@@H]3CCC4=CC(=O)CC[C@]4(C)[C@H]3CC[C@@]21C [17α-hydroxy-progesterone]
[4]
  R.C.R. 50 (relative competition index): 0.79

## CC(C)CCC[C@@H](C)[C@H]1CC[C@H]2[C@@H]3CC=C4C[C@@H](O)CC[C@]4(C)[C@H]3CC[C@]12C [Cholesterol]
[4]
  R.C.R. 50 (relative competition index): 0.02

## C[C@]12CC[C@H](O)CC1=CC[C@@H]1[C@@H]2CC[C@]2(C)C(=O)CC[C@@H]12 [Dehydroepiandrosterone]
[5]
  RCR: 2.3

## C[C@]12CC[C@@H]3c4ccc(O)cc4CC[C@H]3[C@@H]1CC[C@@H]2O [Estradiol]
[6]
  effect on assembling of microtubules (absorbance at 345 nm): inactive

## CC(=O)C1CCC2C3CC=C4CC(OS(=O)(=O)c5ccc(C)cc5)CCC4(C)C3CCC12C (stereo not drawn) [PREG Tosylate]
[7]
  Index of Competition, MAP-2c + Tubuline: 129%
[1]
  Index of Competition, MT (Beef): 121%
[2]
  Index of Competition, Cytosol (Rat): 107%

## CC(=O)C1[C@H](C)CC2C3CC=C4CC(O)CCC4(C)C3CCC21C (stereo partly drawn) [PREG-16a-methyl]
[1]
  Index of Competition, MT (Beef): 88%
[2]
  Index of Competition, Cytosol (Rat): 80%

## [2H]OC1CCC2(C)C(=CCC3C2CCC2(C)C3CC(C)C2C(C)=O)C1 (stereo not drawn) [PREG-16β-methyl]
[7]
  Index of Competition, MAP-2c + Tubuline: 97%
[1]
  Index of Competition, MT (Beef): 83 (beef) %
[2]
  Index of Competition, Cytosol (Rat): 63%

## CC(=O)C1CCC2C3CC=C4CC(OS(=O)(=O)O)CCC4(C)C3CCC12C (stereo not drawn) [Preqnenolone sulfate, pregnenolone sulfate]
[5]
  RCR: 91.5
[6]
  effect on assembling of microtubules (absorbance at 345 nm): effects similar to those of progesterone
[8]
  RCR: 78.8
[4]
  competition for the binding of PREG [3H] (in words): best competitors
  R.C.R. 50 (relative competition index): 78.8 ± 7.0

## CC(=O)[C@H]1CC[C@H]2[C@@H]3CCC4=CC(=O)CC[C@]4(C)[C@H]3CC[C@]12C [Progesterone]
[5]
  binding to MAP2 (in words): affinity for MAP2 of the same order as that of PREG
  RCR: 81.3
[6]
  effect on assembling of microtubules (absorbance at 345 nm): without effect
[6]; with PREG, each at 500 nM
  effect on PREG-stimulated assembly of microtubules: counteracts the stimulative effect of PREG on the assembly of microtubules
[8]
  RCR: 72.1
[4]
  competition for the binding of PREG [3H] (in words): best competitors
  R.C.R. 50 (relative competition index): 72.1 ± 17.7

## C[C@]12CC[C@H]3[C@@H](CCC4=CC(=O)CC[C@@]43C)[C@@H]1CC[C@@H]2O [Testosterone, reference compound]
[5]
  RCR: 2.3
[8]
  RCR: 5.6

## [2H]OC1CCC2(C)C(=CCC3C2CCC2(C)C3CCC2[C@H](C)O)C1 (stereo partly drawn) [Δ5-pregnene-3β.20α-diol, Δ5-pregnene-3β, 20α-diol]
[4]
  competition for the binding of PREG [3H] (in words): best competitors
  R.C.R. 50 (relative competition index): 68.4 ± 15.3
[1]
  Index of Competition, MT (Beef): 100 (beef) %
[2]
  Index of Competition, Cytosol (Rat): 87%

## Phospholipase A2 [reference compound]
[9]; cytosol incubated with enzyme at 37° C. for 30 min, mean±standard error, n=3
  % of Control (binding of PREG [3H]): 85.0 ± 7.3%
[9]; enzyme treatment of cytosol
  effect on binding sites of PREG [3H] (in words): no significant effect
